According to patent US20230295096A1, “PYRAZOLE CARBOXAMIDE COMPOUNDS FOR TREATMENT OF HBV” (ASSEMBLY BIOSCIENCES, INC., priority 2020, published 2023):

What follows are molecules tested on HBV (assay: Viral load production from HepAD38 cells, qPCR of the HBV core sequence in supernatant). Details: Hepatitis B virus, HePAD38, 120 h, HepAD38 cells, 5 days, HBV DNA in supernatant by qPCR; Table 1 ranges; read-out: Activity (viral load lowering EC50).
Type: cell-based
Description: HepAD38 cells grown in a T-150 flask (Corning, cat#: 430825) with Growth Medium (DMEM/F12 (1:1) (Hyclone, cat#: SH30023.02), 1X Pen/Strep (Invitrogen, cat#: 15140-122), 10% FBS (Tissue Culture Biologics, cat#: 101), 250 µg/mL G418 (Alfa Aesar, cat#: J62671), 1 µg/mL Tetracycline (Teknova, cat#: T3320)) were detached with 0.25% trypsin-EDTA (Invitrogen, cat#: 25200-056). Tetracycline-free treatment medium (15 mL DMEM/F12 (1:1) 1× Pen/step, with 2% FBS, Tet-system approved (Clontech, cat#: 631106) were then added to mix, transferred into a 50 ml conical tube (Falcon, cat#: 21008-918,) and spun at 1300 rpm for 5 min. Pelleted cells were then re-suspended/washed with 50 mL of 1X DPBS (Invitrogen, cat#: 14190-136) 2 times and 50 mL treatment medium twice. HepAD38 cells were then re-suspended with 10 mL of treatment medium, syringed and counted. Wells of 96-well clear bottom TC plate (Corning, cat#: 3904,) were seeded at 50.000 cells/well in 180 µL of treatment medium, and 20 µL of either 10% DMSO (Sigma, cat#: D4540) as controls or a 10X solution of test compounds in 10% DMSO in treatment media was added for a final compound concentration starting at 10 µM, and plates were incubated in 5% CO2 incubator at 37° C. for 5 days.
Subsequently viral load production was assayed by quantitative PCR (qPCR) of the HBV core sequence. PCR reaction mixture containing forward primers HBV-f 5′-CTGTGCCTTGGGTGGCTTT-3′ (IDT DNA), Reverse primers HBV-r 5′-[…]-3′ (IDT DNA), Fluorescent TaqMan^tm Probes HBV-probe 5′-FAM/AGCTCCAAA/ZEN/[…]/3IABkFQ-3′ (IDT DNA), 10 µL/well of PerfeCTa® qPCR ToughMix® (Quanta Biosciences, Cat#: 95114-05 K), and 6 µL/well of DEPC water (Alfa Aesar, cat#: J62087) was prepared. Four µL of supernatant was added to 16 µL of the reaction mixture in a qPCR plate (Applied Biosytems, Cat#: 4309849), sealed with a film (Applied Biosystems, Cat#: 4311971), centrifuged for a few seconds, and subsequently run on an Applied Biosystems VIIA7. The PCR mixture was incubated at 45° C. for 5 min, then 95° C. for 10 min, followed by 40 cycles of 10 seconds at 95° C. and 20 seconds at 60° C. Viral load was quantified against known HBV DNA standards by using ViiA™ 7 Software. Viral load in the supernatant from wells with treated cells were compared against viral load in supernatant from DMSO control wells (≥ 3 per plate). Cell viability assay was performed with CellTiter-Glo Luminescent Cell Viability Assay (Promega, cat#: G7573) with modification. Mixed appropriate amount of CellTiter-Glo (CTG) 1X DPBS in a 1:1 ratio, added 100 uL of the mixture to each well followed completely removal of all supernatant in each well without touching cell surface. Incubated the plate at room temperature for 10 min on an orbital shaker, and then read the plate with a plate reader (TECAN M1000 or Envision). EC50 or CC50 values were calculated through curve-fitting of the four-parameter nonlinear-logistic-regression model (GraphPad Prism or Dotmatics). CC50 values were all >10 µM.
Molecule `C#CC1(O)CC2CC(c3nn(C)c(N)c3C(=O)Nc3ccc(F)c(Cl)c3)CC2C1` (stereo not drawn) [Example 22, 5-Amino-N-(3-chloro-4-fluorophenyl)-3-(5-ethynyl-5-hydroxyoctahydropentalen-2-yl)-1-methyl-1H-pyrazole-4-carboxamide] has an EC50 of under 10 nM.
In the case of `Cn1cc(C2(O)CC3CC(c4nn(C)c(N)c4C(=O)Nc4ccc(F)c(Cl)c4)CC3C2)nn1` (stereo not drawn) [Example 23, 5-Amino-N-(3-chloro-4-fluorophenyl)-3-(5-hydroxy-5-(1-methyl-1H-1,2,3-triazol-4-yl)octahydropentalen-2-yl)-1-methyl-1H-pyrazole-4-carboxamide], the EC50 is reported as under 10 nM.
Work on `Cn1nc(C2CC3CC(O)(c4c(Br)nnn4C)CC3C2)c(C(=O)Nc2ccc(F)c(Cl)c2)c1N` (stereo not drawn) [Example 24, 5-Amino-3-(5-(4-bromo-1-methyl-1H-1,2,3-triazol-5-yl)-5-hydroxyoctahydropentalen-2-yl)-N-(3-chloro-4-fluorophenyl)-1-methyl-1H-pyrazole-4-carboxamide] yielded an EC50 of under 10 nM.
`Cn1nncc1C1(O)CC2CC(c3nn(C)c(N)c3C(=O)Nc3ccc(F)c(Cl)c3)CC2C1` (stereo not drawn) [Example 25, 5-Amino-N-(3-chloro-4-fluorophenyl)-3-(5-hydroxy-5-(1-methyl-1H-1,2,3-triazol-5-yl)octahydropentalen-2-yl)-1-methyl-1H-pyrazole-4-carboxamide] was tested, and the EC50 was under 10 nM.
`Cn1nccc1C1(O)CC2CC(c3nn(C)c(N)c3C(=O)Nc3ccc(F)c(Cl)c3)CC2C1` (stereo not drawn) [Example 26, 5-Amino-N-(3-chloro-4-fluorophenyl)-3-(5-hydroxy-5-(1-methyl-1H-pyrazol-5-yl)octahydropentalen-2-yl)-1-methyl-1H-pyrazole-4-carboxamide] showed an EC50 of under 10 nM.
With `Cn1nc(C2CC3CC(O)(c4c[nH]cn4)CC3C2)c(C(=O)Nc2ccc(F)c(Cl)c2)c1N` (stereo not drawn) [Example 27, 5-Amino-N-(3-chloro-4-fluorophenyl)-3-(5-hydroxy-5-(1H-imidazol-4-yl)octahydropentalen-2-yl)-1-methyl-1H-pyrazole-4-carboxamide] the EC50 was 10 to 50 nM.
For `Cn1nc(C2CC3CC(O)(c4cn[nH]c4)CC3C2)c(C(=O)Nc2ccc(F)c(Cl)c2)c1N` (stereo not drawn) [Example 28, 5-Amino-N-(3-chloro-4-fluorophenyl)-3-(5-hydroxy-5-(1H-pyrazol-4-yl)octahydropentalen-2-yl)-1-methyl-1H-pyrazole-4-carboxamide], the EC50 was 10 to 50 nM.
For `Cn1nc(C2CC3CC(F)(CC(F)F)CC3C2)c(C(=O)Nc2ccc(F)c(Cl)c2)c1N` (stereo not drawn) [Example 29, 5-Amino-N-(3-chloro-4-fluorophenyl)-3-(5-(2,2-difluoroethyl)-5-fluorooctahydropentalen-2-yl)-1-methyl-1H-pyrazole-4-carboxamide], the EC50 was 10 to 50 nM.
`Cn1nc(C2CC3CC(O)(C(F)F)CC3C2)c(C(=O)Nc2ccc(F)c(Cl)c2)c1N` (stereo not drawn) [Example 30, 5-Amino-N-(3-chloro-4-fluorophenyl)-3-(5-(difluoromethyl)-5-hydroxyoctahydropentalen-2-yl)-1-methyl-1H-pyrazole-4-carboxamide] showed an EC50 of 10 to 50 nM.
Molecule `Cn1nc(C2CC3CC(O)(C(F)(F)F)CC3C2)c(C(=O)Nc2ccc(F)c(Cl)c2)c1N` (stereo not drawn) [Example 31, 5-Amino-N-(3-chloro-4-fluorophenyl)-3-(5-hydroxy-5-(trifluoromethyl)octahydropentalen-2-yl)-1-methyl-1H-pyrazole-4-carboxamide] has an EC50 of 10 to 50 nM.
Work on `Cn1nc(C2CC3CC(O)(C(F)(F)C(F)(F)F)CC3C2)c(C(=O)Nc2ccc(F)c(Cl)c2)c1N` (stereo not drawn) [Example 32, 5-Amino-N-(3-chloro-4-fluorophenyl)-3-(5-hydroxy-5-(perfluoroethyl)octahydropentalen-2-yl)-1-methyl-1H-pyrazole-4-carboxamide] yielded an EC50 of 10 to 50 nM.
`Cn1nc(C2CC3CC(O)(C(F)(F)S(=O)(=O)c4ccccc4)CC3C2)c(C(=O)Nc2ccc(F)c(Cl)c2)c1N` (stereo not drawn) [Example 33, 5-Amino-N-(3-chloro-4-fluorophenyl)-3-(5-(difluoro(phenylsulfonyl)methyl)-5-hydroxyoctahydropentalen-2-yl)-1-methyl-1H-pyrazole-4-carboxamide] showed an EC50 of 10 to 50 nM.
`Cn1nc(C2CC3CC(O)(C(F)(F)S(=O)(=O)c4ccc(Cl)cc4)CC3C2)c(C(=O)Nc2ccc(F)c(Cl)c2)c1N` (stereo not drawn) [Example 34, 5-Amino-N-(3-chloro-4-fluorophenyl)-3-(5-(((4-chlorophenyl)sulfonyl)difluoromethyl)-5-hydroxyoctahydropentalen-2-yl)-1-methyl-1H-pyrazole-4-carboxamide] gave an EC50 of 10 to 50 nM.
For `Cc1ccc(S(=O)(=O)C(F)(F)C2(O)CC3CC(c4nn(C)c(N)c4C(=O)Nc4ccc(F)c(Cl)c4)CC3C2)cc1` (stereo not drawn) [Example 35, 5-Amino-N-(3-chloro-4-fluorophenyl)-3-(5-(difluoro(tosyl)methyl)-5-hydroxyoctahydropentalen-2-yl)-1-methyl-1H-pyrazole-4-carboxamide], the EC50 was 10 to 50 nM.
For `Cc1ccc([S+]([O-])C(F)(F)C2(O)CC3CC(c4nn(C)c(N)c4C(=O)Nc4ccc(F)c(Cl)c4)CC3C2)cc1` (stereo not drawn) [Example 36, 5-Amino-N-(3-chloro-4-fluorophenyl)-3-(5-(difluoro(p-tolylsulfinyl)methyl)-5-hydroxyoctahydropentalen-2-yl)-1-methyl-1H-pyrazole-4-carboxamide], the EC50 was 10 to 50 nM.
Work on `Cn1nc(C2CC3CC(O)(CS(=O)(=O)c4cccc(F)c4)CC3C2)c(C(=O)Nc2ccc(F)c(Cl)c2)c1N` (stereo not drawn) [Example 37, 5-Amino-N-(3-chloro-4-fluorophenyl)-3-(5-(((3-fluorophenyl)sulfonyl)methyl)-5-hydroxyoctahydropentalen-2-yl)-1-methyl-1H-pyrazole-4-carboxamide] yielded an EC50 of under 10 nM.
With `Cn1cnc(C(=O)NCC2CC3CC(c4nn(C)c(N)c4C(=O)Nc4ccc(F)c(Cl)c4)CC3C2)c1` (stereo not drawn) [Example 38, 5-Amino-N-(3-chloro-4-fluorophenyl)-1-methyl-3-(5-((1-methyl-1H-imidazole-4-carboxamido)methyl)octahydropentalen-2-yl)-1H-pyrazole-4-carboxamide] the EC50 was under 10 nM.
`CC(C)C(=O)NCC1CC2CC(c3nn(C)c(N)c3C(=O)Nc3ccc(F)c(Cl)c3)CC2C1` (stereo not drawn) [Example 45, 5-Amino-N-(3-chloro-4-fluorophenyl)-3-(5-(isobutyramidomethyl)octahydropentalen-2-yl)-1-methyl-1H-pyrazole-4-carboxamide] was tested, and the EC50 was under 10 nM.
Molecule `Cn1nc(C2CC3CC(CNC(=O)C4CCC4)CC3C2)c(C(=O)Nc2ccc(F)c(Cl)c2)c1N` (stereo not drawn) [Example 46, 5-Amino-N-(3-chloro-4-fluorophenyl)-3-(5-(cyclobutanecarboxamidomethyl)octahydropentalen-2-yl)-1-methyl-1H-pyrazole-4-carboxamide] has an EC50 of under 10 nM.
For `Cn1nc(C2CC3CC(CNC(=O)C4CCCC4)CC3C2)c(C(=O)Nc2ccc(F)c(Cl)c2)c1N` (stereo not drawn) [Example 47, 5-Amino-N-(3-chloro-4-fluorophenyl)-3-(5-(cyclopentanecarboxamidomethyl)octahydropentalen-2-yl)-1-methyl-1H-pyrazole-4-carboxamide], the EC50 was under 10 nM.
Work on `COC(=O)NCC1CC2CC(c3nn(C)c(N)c3C(=O)Nc3ccc(F)c(Cl)c3)CC2C1` (stereo not drawn) [Example 48, Methyl ((5-(5-amino-4-((3-chloro-4-fluorophenyl)carbamoyl)-1-methyl-1H-pyrazol-3-yl)octahydropentalen-2-yl)methyl)carbamate] yielded an EC50 of under 10 nM.
